From the NIST ThermoML archive (doi:10.1021/je400679k)
± gives the expanded uncertainty stated by the source.

Test: xn = mol fraction of the nth substance listed
Conditions: 101 kPa, Liquid, Vibrating tube method

CNCCCN [N-methyl-1,3-diaminopropane] + CCN(CC)CCO
mass density [kg/m3]
Conditions | x1 = 0.0999 | x1 = 0.2 | x1 = 0.3001 | x1 = 0.3997 | x1 = 0.5 | x1 = 0.5998 | x1 = 0.7001 | x1 = 0.8 | x1 = 0.8996 | x1 = 1
283.15 K | 892.458 ± 0.27 | 890.44 ± 0.3 | 888.023 ± 0.34 | 885.377 ± 0.38 | 882.338 ± 0.43 | 878.902 ± 0.47 | 874.969 ± 0.52 | 870.601 ± 0.57 | 866.062 ± 0.63 | 860.459 ± 0.68
293.15 K | 883.574 ± 0.26 | 881.665 ± 0.3 | 879.317 ± 0.34 | 876.712 ± 0.38 | 873.685 ± 0.42 | 870.252 ± 0.47 | 866.283 ± 0.52 | 861.885 ± 0.57 | 857.283 ± 0.62 | 851.605 ± 0.67
303.15 K | 874.574 ± 0.26 | 872.785 ± 0.3 | 870.463 ± 0.34 | 867.945 ± 0.38 | 864.94 ± 0.42 | 861.519 ± 0.47 | 857.522 ± 0.51 | 853.099 ± 0.56 | 848.439 ± 0.61 | 842.69 ± 0.67
313.15 K | 865.456 ± 0.26 | 863.792 ± 0.3 | 861.601 ± 0.34 | 859.082 ± 0.38 | 856.105 ± 0.42 | 852.691 ± 0.46 | 848.689 ± 0.51 | 844.237 ± 0.56 | 839.53 ± 0.61 | 833.715 ± 0.66
323.15 K | 856.219 ± 0.26 | 854.692 ± 0.3 | 852.583 ± 0.33 | 850.12 ± 0.37 | 847.171 ± 0.41 | 843.77 ± 0.46 | 839.765 ± 0.5 | 835.289 ± 0.55 | 830.547 ± 0.6 | 824.673 ± 0.65
333.15 K | 846.874 ± 0.26 | 845.474 ± 0.3 | 843.452 ± 0.33 | 841.042 ± 0.37 | 838.132 ± 0.41 | 834.751 ± 0.45 | 830.75 ± 0.5 | 826.265 ± 0.54 | 821.487 ± 0.59 | 815.559 ± 0.64
343.15 K | 837.416 ± 0.26 | 836.147 ± 0.3 | 834.206 ± 0.33 | 831.853 ± 0.37 | 828.978 ± 0.41 | 825.629 ± 0.45 | 821.629 ± 0.49 | 817.142 ± 0.54 | 812.342 ± 0.58 | 806.37 ± 0.63
353.15 K | 827.843 ± 0.26 | 826.695 ± 0.29 | 824.829 ± 0.33 | 822.533 ± 0.36 | 819.712 ± 0.4 | 816.396 ± 0.45 | 812.413 ± 0.49 | 807.931 ± 0.53 | 803.118 ± 0.58 | 797.093 ± 0.62
363.15 K | 818.122 ± 0.26 | 817.116 ± 0.29 | 815.306 ± 0.33 | 813.074 ± 0.36 | 810.325 ± 0.4 | 807.063 ± 0.44 | 803.095 ± 0.48 | 798.611 ± 0.53 | 793.772 ± 0.57 | 787.723 ± 0.61
